Laboratory results taken from US10696692B2, “Amido-benzyl sulfone and sulfoxide derivates” (Forma TM, LLC, priority 2012, dated 2020).
Like-named read-outs stand apart in the source and are kept apart here.

Tests used:
NAMPT = NAMPT (Homo sapiens (Human), UniProt P43490); experiment: Assay 1: Biochemical Inhibition Assay (NAMPT enzymatic reaction, NMN quantified by mass spectrometry);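 note: recombinant His-tagged human NAMPT preincubated with compound 15 min, then reacted 30 min at rt with 1 µM NAM, 100 µM PRPP, 2.5 mM ATP, NMN product read by RapidFire MS, normalized to L-Cystathionine internal standard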
NAMPT, sequence (P43490 whole entry): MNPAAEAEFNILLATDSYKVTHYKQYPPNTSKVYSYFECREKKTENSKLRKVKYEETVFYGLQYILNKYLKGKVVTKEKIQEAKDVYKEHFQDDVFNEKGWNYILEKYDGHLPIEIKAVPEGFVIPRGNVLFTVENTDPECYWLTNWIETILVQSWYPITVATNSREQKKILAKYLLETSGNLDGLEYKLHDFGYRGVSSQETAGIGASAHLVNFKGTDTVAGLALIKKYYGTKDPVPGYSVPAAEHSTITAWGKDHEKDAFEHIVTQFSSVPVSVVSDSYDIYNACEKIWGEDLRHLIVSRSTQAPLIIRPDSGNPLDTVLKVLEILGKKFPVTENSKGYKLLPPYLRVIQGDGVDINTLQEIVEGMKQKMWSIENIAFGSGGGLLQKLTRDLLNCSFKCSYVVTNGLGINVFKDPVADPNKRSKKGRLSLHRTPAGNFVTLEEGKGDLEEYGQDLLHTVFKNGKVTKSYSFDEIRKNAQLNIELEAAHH

A2780 cells = experiment: Assay 2: In-Vitro Cell Proliferation Assay (A2780 cells, SRB readout, 72 hours); type: cell-based; conditions: read-out: Cell Proliferation (IC50);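 note: viable cells counted via sulforhodamine B staining, absorbance at 570 nm, after 72 h exposure at 37 °C, DMSO 0.1% as control, media-only background subtracted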
[1] = Homo sapiens, A2780, 72 h, A2780 cells, 72 hours, SRB

Compound | IC50 (NAMPT; read-out: Biochemical (IC50)) [nM] | IC50 (A2780 cells; [1]) [nM] | IC50 (NAMPT; Biochemical (IC50)) [nM] | IC50 (A2780 cells; Homo sapiens, A2780, 72 h) [nM] | IC50 (A2780 cells; A2780 cells, 72 hours, SRB) [nM]
CC1(O)CCN(S(=O)(=O)c2ccc(CNC(=O)c3ccc4nccn4c3)cc2)C1 (racemic) [Example 161, Imidazo[1,2-a]pyridine-6-carboxylic acid 4-(3-hydroxy-3-methyl-pyrrolidine-1-sulfonyl)-benzylamide] | 52.1 | 47.2 |  |  | 
O=C(NCc1ccc(S(=O)(=O)N2CCC(O)CC2)cc1)c1cnc2[nH]ncc2c1 [Example 30, 1H-Pyrazolo[3,4-b]pyridine-5-carboxylic acid 4-(4-hydroxy-piperidine-1-sulfonyl)-benzylamide] | 178 | 205 |  |  | 
O=C(NCc1ccc(S(=O)(=O)N2CCCC(O)C2)cc1)c1cc2cnccc2[nH]1 (racemic) [Example 35, 1H-Pyrrolo[3,2-c]pyridine-2-carboxylic acid 4-(3-hydroxy-piperidine-1-sulfonyl)-benzylamide] | 38.3 | 35.1 |  |  | 
CN1CCN(C(=O)C2CCN(S(=O)(=O)c3ccc(CNC(=O)c4ccc5nccn5c4)cc3)CC2)CC1 [Example 109, Imidazo[1,2-a]pyridine-6-carboxylic acid 4-[4-(4-methyl-piperazine-1-carbonyl)-piperidine-1-sulfonyl]-benzylamide] | 2.7 | 3.9 |  |  | 
O=C(NCc1ccc(S(=O)(=O)N2CC(F)(F)C2)cc1)c1ccc2nccn2c1 [Example 239, N-[[4-(3,3-difluoroazetidin-1-yl)sulfonylphenyl]methyl] imidazo[1,2-a]pyridine-6-carboxamide] | 33.3 | 35.6 |  |  | 
CC(C)(C)OC(=O)N1CCCC2(CCN(S(=O)(=O)c3ccc(CNC(=O)c4ccc5nccn5c4)cc3)CC2)C1 [Example 122, 9-(4-{[(Imidazo[1,2-a]pyridine-6-carbonyl)-amino]-methyl}-benzenesulfonyl)-2,9-diaza-spiro[5.5]undecane-2-carboxylic acid tert-butyl ester] | 25.5 | 2.6 |  |  | 
CC(C)(C)OC(=O)N1CCCC2(C1)CN(S(=O)(=O)c1ccc(CNC(=O)c3ccc4nccn4c3)cc1)CCO2 (racemic) [Example 126, 4-(4-{[(Imidazo[1,2-a]pyridine-6-carbonyl)-amino]-methyl}-benzenesulfonyl)-1-oxa-4,8-diaza-spiro[5.5]undecane-8-carboxylic acid tert-butyl ester] | 17.5 | 1.25 |  |  | 
CC(C)(C)OC(=O)N1CCCC12CCCN(S(=O)(=O)c1ccc(CNC(=O)c3ccc4nccn4c3)cc1)CC2 (racemic) [Example 183] | 8.99 | 0.76 |  |  | 
NC1CC2(CCN(S(=O)(=O)c3ccc(CNC(=O)c4ccc5nccn5c4)cc3)CC2)C1 [Example 323, N-[[4-[(2-amino-7-azaspiro[3.5]nonan-7-yl)sulfonyl]phenyl]methyl] imidazo[1,2-a]pyridine-6-carboxamide] | 17.7 | 13.3 |  |  | 
CCCN1CCC([S+]([O-])c2ccc(CNC(=O)N3Cc4ccncc4C3)cc2)CC1 (stereo not shown) [Example 377, N-[[4-[(1-propyl-4-piperidyl)sulfinyl]phenyl]methyl]-1,3-dihydropyrrolo[3,4-c]pyridine-2-carboxamide] | 24.9 | 24.1 |  |  | 
N#CC1CCN(S(=O)(=O)c2ccc(CNC(=O)c3ccc4nccn4c3)cc2)CC1 [Example 95, Imidazo[1,2-a]pyridine-6-carboxylic acid 4-(4-cyano-piperidine-1-sulfonyl)-benzylamide] | 41 | 33.5 |  |  | 
O=C(NCc1ccc(S(=O)(=O)N2C3COCC2CC(O)C3)cc1)c1ccc2nccn2c1 (racemic) [Example 140, cis-Imidazo[1,2-a]pyridine-6-carboxylic acid 4-(7-hydroxy-3-oxa-9-aza-bicyclo[3.3.1]nonane-9-sulfonyl)-benzylamide] |  |  | 46.4 | 14.1 | 
O=C(NCc1ccc(S(=O)(=O)N2CCCCC2)cc1)c1cnc2nccn2c1 [Example 6, Imidazo[1,2-a]pyrimidine-6-carboxylic acid 4-(piperidine-1-sulfonyl)-benzylamide] | 3.5 | 129 |  |  | 
O=C(NCc1ccc(S(=O)(=O)N2CCCC3(CCCN3)CC2)cc1)c1ccc2nccn2c1 (stereo not shown) [Example 334, N-[[4-(1,9-diazaspiro[4.6]undecan-9-ylsulfonyl)phenyl]methyl] imidazo[1,2-a]pyridine-6-carboxamide] | 26.7 | 26 |  |  | 
O=C(NCc1ccc(S(=O)(=O)N2CC3(CCOCC3)C2)cc1)c1cc2ccncc2o1 [Example 263, N-[[4-(7-oxa-2-azaspiro[3.5]nonan-2-ylsulfonyl)phenyl]methyl]furo [2,3-c]pyridine-2-carboxamide] | 18.2 | 23.4 |  |  | 
C[C@@H]1CN(S(=O)(=O)c2ccc(CNC(=O)c3cc4ccncc4o3)cc2)C[C@H](C)N1C1COC1 [Example 286, N-[[4-[(3S,5R)-3,5-dimethyl-4-(oxetan-3-yl)piperazin-1-yl]sulfonylphenyl]methyl]furo [2,3-c]pyridine-2-carboxamide] | 14.5 | 0.488 |  |  | 

Compound | IC50 (NAMPT; read-out: Biochemical (IC50)) [nM] | IC50 (A2780 cells; [1]) [nM] | IC50 (NAMPT; Biochemical (IC50)) [nM] | IC50 (A2780 cells; Homo sapiens, A2780, 72 h) [nM] | IC50 (A2780 cells; A2780 cells, 72 hours, SRB) [nM]
O=C(NCc1ccc(S(=O)(=O)N2CCC(F)(F)C2)cc1)c1cnc2[nH]ncc2c1 [Example 175, 1H-Pyrazolo[3,4-b]pyridine-5-carboxylic acid 4-(3,3-difluoro-pyrrolidine-1-sulfonyl)-benzylamide] | 65.2 | 127 |  |  | 
CN1CCCC12CN(S(=O)(=O)c1ccc(CNC(=O)c3ccc4nccn4c3)cc1)C2 [Example 273, N-[[4-[(5-methyl-2,5-diazaspiro[3.4]octan-2-yl)sulfonyl)phenyl]methyl] imidazo[1,2-a]pyridine-6-carboxamide] | 25.4 | 10.4 |  |  | 
O=C(NCc1ccc(S(=O)(=O)N2CCC(O)CC2)cc1)c1ccc2nccn2c1 [Example 28, Imidazo[1,2-a]pyridine-6-carboxylic acid 4-(4-hydroxy-piperidine-1-sulfonyl)-benzylamide] | 23.5 | 27.6 |  |  | 
O=C(NCc1ccc(S(=O)(=O)N2CCC3(CCNC3=O)C2)cc1)c1ccc2nccn2c1 (stereo not shown) [Example 217, N-[[4-[(1-oxo-2,7-diazaspiro[4.4]nonan-7-yl)sulfonyl]phenyl]methyl] imidazo[1,2-a]pyridine-6-carboxamide] | 16 | 10.1 |  |  | 
O=C(NCc1ccc([S+]([O-])C2CCN(C3CCOCC3)CC2)cc1)N1Cc2ccncc2C1 (stereo not shown) [Example 365, N-[[4-[(1-tetrahydropyran-4-yl-4-piperidyl)sulfinyl]phenyl]methyl]-1,3-dihydropyrrolo[3,4-c]pyridine-2-carboxamide] | 2.02 | 20 |  |  | 
CC(=O)N1CCCN(S(=O)(=O)c2ccc(CNC(=O)c3ccc4nccn4c3)cc2)CC1 [Example 100, Imidazo[1,2-a]pyridine-6-carboxylic acid 4-(4-acetyl-[1,4]diazepane-1-suIfonyl)-benzylamide] | 25.7 | 25.4 |  |  | 
O=C(NCc1ccc(S(=O)(=O)N2CC3CC2CC3F)cc1)c1ccc2nccn2c1 (racemic) [Example 164, cis-Imidazo[1,2-alpyridine-6-carboxylic acid 4-(5-fluoro-2-aza-bicyclo[2.2.1]heptane-2-sulfonyl)-benzylamide] | 8.1 | 12.4 |  |  | 
CC(C)(C)OC(=O)NC1CC2(CCN(S(=O)(=O)c3ccc(CNC(=O)c4ccc5nccn5c4)cc3)CC2)C1 [Example 127] | 14.5 | 2.77 |  |  | 
O=C(NCc1ccc(S(=O)(=O)C2CCCN(S(=O)(=O)c3ccccc3)C2)cc1)c1cnc2[nH]ncc2c1 (stereo not shown) [Example 345, N-[[4-[[1-(benzenesulfonyl)-3-piperidyl]sulfonyl]phenyl]methyl]-1H-pyrazolo[3,4-b]pyridine-5-carboxamide] | 118 | 307 |  |  | 
CC(C)N1CCC(S(=O)(=O)c2ccc(CNC(=O)c3ccc4nccn4c3)cc2)CC1 [Example 315, N-[[4-[(1-isopropyl-4-piperidyl)sulfonyl]phenyl]methyl]imidazo[1,2-a]pyridine-6-carboxamide] | 89 | 30.3 |  |  | 
O=C(NCc1ccc(S(=O)(=O)N2CC3CCC(F)(F)C3C2)cc1)c1ccc2nccn2c1 (single isomer, unassigned) [Example 73, cis-Imidazo[1,2-a]pyridine-6-carboxylic acid 4-(4,4-difluoro-hexahydro-cyclopenta[c]pyrrole-2-sulfonyl)-benzylamide] | 3 |  |  |  | 0.8
O=C(NCc1ccc(S(=O)(=O)C2CCN(CC(F)(F)F)CC2)cc1)c1cc2cnccc2[nH]1 [Example 211, N-[[4-[[1-(2,2,2-trifluoroethyl)-4-piperidyl]sulfonyl]phenyl]methyl]-1H-pyrrolo[3,2-c]pyridine-2-carboxamide] | 15.4 | 3.23 |  |  | 
O=C(NCc1ccc(S(=O)(=O)C2CCCOC2)cc1)c1cc2ccncc2o1 (stereo not shown) [Example 275, N-[(4-tetrahydropyran-3-ylsulfonylphenyl)methyl]furo [2,3-c]pyridine-2-carboxamide] | 30.4 | 50.3 |  |  | 
O=C(NCc1ccc(S(=O)(=O)N2CCCC(O)C2)cc1)c1cnc2[nH]ncc2c1 (racemic) [Example 33, 1H-Pyrazolo[3,4-b]pyridine-5-carboxylic acid 4-(3-hydroxy-piperidine-1-sulfonyl)-benzylamide] | 169 | 184 |  |  | 
O=C(NCc1ccc(S(=O)(=O)C2CCN(C3CCOCC3)CC2)cc1)c1cnc2[nH]ncc2c1 [Example 206, N-[[4-[(1-tetrahydropyran-4-yl-4-piperidyl)sulfonyl]phenyl]methyl]-1H-pyrazolo[3,4-b]pyridine-5-carboxamide] | 59.2 | 21.1 |  |  | 
COCCN1CCN(S(=O)(=O)c2ccc(CNC(=O)c3cc4ccncc4o3)cc2)CC1 [Example 298, N-[[4-[4-(2-methoxyethyl)piperazin-1-yl]sulfonylphenyl]methyl]furo [2,3-c]pyridine-2-carboxamide] | 90.6 | 24.6 |  |  | 
